# Measurements published in publication PMC5081701, “Identification of New Structural Fragments for the Design of Lactate Dehydrogenase A Inhibitors” (Acta Naturae, 2016).
# Biological target: T1, LDH from rabbit muscle (LDH-A) (Oryctolagus cuniculus, UniProt P13491)
# T1 construct: gene LDHA; native commercial enzyme from rabbit muscle (Sigma-Aldrich), homotetramer
# Assay: spectrophotometric NADH absorbance decrease at […] nm, initial rate
# Format: biochemical
structure (smiles),measurement,value
"O=S(=O)(O)CCSc1nc2ccccc2s1 [compound 4, 2-(benzothiazol-2-ylsulfanyl)-ethanesulfonate]",IC50,1.2 mM
